One data set has as its target T1, PPARγ (Homo sapiens, UniProt P37231).
T1 construct: The reporter is ERE-βGlob-Luc-SV-Neo
T1 sequence (P37231 238-505 limits assumed): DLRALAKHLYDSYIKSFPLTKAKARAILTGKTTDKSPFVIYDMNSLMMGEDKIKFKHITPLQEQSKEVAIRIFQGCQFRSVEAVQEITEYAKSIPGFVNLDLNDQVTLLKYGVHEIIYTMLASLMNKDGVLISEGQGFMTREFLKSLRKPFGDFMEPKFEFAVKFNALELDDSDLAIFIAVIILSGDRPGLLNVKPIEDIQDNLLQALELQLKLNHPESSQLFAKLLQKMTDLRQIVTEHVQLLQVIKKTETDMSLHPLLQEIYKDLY
Description: Cross-curve PPAR transactivation test, PPARγ. The class given is cell-based. Particulars: HeLN cells stably transfected with Gal-hPPAR and luciferase reporter; cross curves against reference agonist, Schild regression; n.a means not active; read-out: PPAR gamma Kd app. On the procedure:
(§1) The activation of the receptors with an agonist (activator) in HeLN cells leads to the expression of a reporter gene, luciferase, which, in the presence of a substrate, generates light. The modulation of the receptors is measured by quantifying the luminescence produced after incubating the cells in the presence of a reference agonist. The ligands displace the agonist from its site. The measurement of the activity is performed by quantifying the light produced. This measurement makes it possible to determine the modulatory activity of the compounds according to the invention by determining the constant that is the affinity of the molecule for the receptor. Since this value can fluctuate depending on the basal activity and the expression of the receptor, it is referred to as Kd apparent (KdApp in nM).
(§2) To determine this constant, “cross curves” of the test product against a reference agonist are produced in a 96-well plate: 10 concentrations of the test product plus a concentration 0 are arranged in a line, and 7 concentrations of the agonist plus a concentration 0 are arranged in a column. This is 88 measurement points for 1 product and 1 receptor. The remaining 8 wells are used for repeatability controls.
(§3) Measurements are also taken for total agonist controls with the same products.
(§4) The HeLN cell lines used are stable transfectants containing the plasmids ERE-βGlob-Luc-SV-Neo (reporter gene) and PPAR (α, δ, γ) Gal-hPPAR. These cells are inoculated into 96-well plates at a rate of 10-000 cells per well in 100 μL of DMEM medium without phenol red and supplemented with 10% of defatted calf serum. The plates are then incubated at 37° C. and 7% CO2 for 16 hours. The various dilutions of the test products and of the reference ligand are added at a rate of 5 μL per well. The plates are then incubated for 18 hours at 37° C. and 7% CO2.
(§5) The culture medium is removed by turning over and 100 μL of a 1:1 PBS/luciferin mixture are added to each well. After 5 minutes, the plates are read by the luminescence detector.

The target of another data set is T2, PPARα (Homo sapiens, UniProt Q07869).
T2 construct: The reporter is ERE-βGlob-Luc-SV-Neo
T2 sequence (Q07869 200-468 limits assumed): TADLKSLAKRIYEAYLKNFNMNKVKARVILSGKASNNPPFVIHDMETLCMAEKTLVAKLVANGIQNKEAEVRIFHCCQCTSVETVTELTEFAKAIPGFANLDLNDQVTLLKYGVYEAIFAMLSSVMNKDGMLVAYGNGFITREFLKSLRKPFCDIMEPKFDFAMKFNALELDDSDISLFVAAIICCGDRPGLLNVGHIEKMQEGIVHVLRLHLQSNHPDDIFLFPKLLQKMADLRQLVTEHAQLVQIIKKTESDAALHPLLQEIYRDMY
Briefly: Cross-curve PPAR transactivation test, PPARα. The class given is cell-based. Particulars: HeLN cells stably transfected with Gal-hPPAR and luciferase reporter; cross curves against reference agonist, Schild regression; n.a means not active; read-out: PPAR alpha Kd app. The method, then:
as §1, §2, §3, §4, §5
For orientation: Reporter assays use an easily measured gene product as a stand-in for the process of interest.

The target of another data set is T3, PPARδ (Homo sapiens, UniProt Q03181).
T3 construct: The reporter is ERE-βGlob-Luc-SV-Neo
T3 sequence (Q03181 211-441 limits assumed): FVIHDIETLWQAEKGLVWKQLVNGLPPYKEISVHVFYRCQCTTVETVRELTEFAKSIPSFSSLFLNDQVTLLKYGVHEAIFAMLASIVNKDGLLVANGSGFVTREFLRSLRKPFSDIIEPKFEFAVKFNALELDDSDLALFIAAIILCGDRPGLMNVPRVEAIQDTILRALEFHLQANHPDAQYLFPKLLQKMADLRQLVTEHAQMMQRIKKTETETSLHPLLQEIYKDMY
Description: Cross-curve PPAR transactivation test, PPARδ. Particulars: HeLN cells stably transfected with Gal-hPPAR and luciferase reporter; cross curves against reference agonist, Schild regression; n.a means not active; read-out: PPARs delta Kd app. The class given is cell-based. The method, then: as §1, §2, §3, §4, §5

Data on 20 compounds can be found in patent publication US8383652B2, “Biaromatic compounds that modulate PPAR-receptors” (Galderma Research & Development, priority 2005, dated 2013).

Structures can show the parent of a compound that is named as a salt.

Usually melting point stands for the temperature, or range, at which the solid turns liquid.

For `CCCCCCCNC(=O)N(C)c1cccc(-c2ccc(/C=C(\C)C(=O)O)cc2OCC)c1` [Compound 32, (E)-3-[2-ethoxy-3′-(3-heptyl-1-methylureido)biphenyl-4-yl]-2-methylacrylic acid], the Kd stood at 1 nM at PPARγ and 4000 nM on PPARα.

On to `CCO/C(=C\c1ccc(-c2cccc(N(C)C(=O)NCCc3ccccc3)c2)cc1)C(=O)O` [Compound 10, (Z)-2-ethoxy-3-[3′-(1-methyl-3-phenethylureido)biphenyl-4-yl]acrylic acid], for which the Kd on PPARγ was 4 nM.

For the compound `COC(=O)/C(=C/c1ccc(-c2cccc(N(C)C(=O)NC3CCCCC3)c2)cc1)OC` [Compound 14, Methyl (Z)-3-[3′-(3-cyclohexyl-1-methylureido)biphenyl-4-yl]-2-methoxyacrylate], the results for the Kd on PPARδ and on PPARγ were 4000 nM and 60 nM, respectively.

Consider `CCCCCNC(=O)N(C)c1cccc(-c2ccc(/C=C(\OC)C(=O)O)cc2OCCCC)c1` [Compound 24, (Z)-3-[2-butoxy-3′-(1-methyl-3-pentylureido)biphenyl-4-yl]-2-methoxyacrylic acid], for which the melting point was found to be 61 °C.

As to `CCCCCCCNC(=O)N(C)c1cccc(-c2ccc(/C=C(\OCC)C(=O)O)cc2)n1` [Compound 2, (Z)-2-ethoxy-3-{4-[6-(3-heptyl-1-methylureido)pyrid-2-yl]phenyl}acrylic acid], the Kd at PPARγ came to 30 nM; at PPARα, 1000 nM.

With `CCCCCCCNC(=O)N(C)c1cccc(-c2ccc(/C=C(\C)C(=O)O)cc2OCCC)c1` [Compound 31, (E)-3-[3′-(3-heptyl-1-methylureido)-2-propoxybiphenyl-4-yl]-2-methylacrylic acid], at PPARγ, the Kd came out at 2 nM.

Take `CCCCCCCNC(=O)N(C)c1cccc(-c2ccc(/C=C(\F)C(=O)O)cc2)c1` [Compound 6, (Z)-2-fluoro-3-[3′-(3-heptyl-1-methylureido)biphenyl-4-yl]acrylic acid]: at PPARγ, the Kd came out at 60 nM.

On to `CCCCCCCNC(=O)N(C)c1cccc(-c2ccc(/C=C(\CC)C(=O)O)cc2)c1` [Compound 7, 2-[1-[3′-(3-heptyl-1-methylureido)biphenyl-4-yl]meth-(E)-ylidene]butyric acid], for which the Kd at PPARγ was found to be 4 nM.

Regarding `CCCCCNC(=O)N(C)c1cccc(-c2ccc(/C=C(\CCC)C(=O)O)cc2)c1` [Compound 8, 2-[1-[3′-(1-methyl-3-pentylureido)biphenyl-4-yl]meth-(E)-ylidene]pentanoic acid], the Kd was 2000 nM at PPARδ, 4 nM on PPARγ and 500 nM on PPARα.

As for `CO/C(=C\c1ccc(-c2cccc(N(C)C(=O)NCCc3ccccc3)c2)cc1)C(=O)O` [Compound 16, (Z)-2-methoxy-3-[3′-(1-methyl-3-phenethylureido)biphenyl-4-yl]acrylic acid], the Kd at PPARγ was 8 nM.

For the compound `CCCCNC(=O)N(C)c1cccc(-c2ccc(/C=C(\OC)C(=O)O)cc2)c1` [Compound 11, (Z)-3-[3′-(3-butyl-1-methylureido)biphenyl-4-yl]-2-methoxyacrylic acid], the Kd on PPARγ was determined as 4 nM.

Turning to `CO/C(=C\c1ccc(-c2cccc(N(C)C(=O)NC3CCCCC3)c2)cc1)C(=O)O` [Compound 15, (Z)-3-[3′-(3-cyclohexyl-1-methylureido)biphenyl-4-yl]-2-methoxyacrylic acid], the Kd at PPARγ came out at 8 nM.

`CCCCOc1cc(/C=C(\C)C(=O)O)ccc1-c1cccc(CN(C)C(=O)c2cccc(OC)c2)c1` [Compound 21, (E)-3-(2-butoxy-3′-{[(3-methoxybenzoyl)methylamino]methyl}biphenyl-4-yl)-2-methylacrylic acid]: the Kd at PPARγ worked out at 30 nM.

On to `CCCCCNC(=O)N(C)c1cccc(-c2ccc(/C=C(\OCC)C(=O)O)cc2)n1` [Compound 3, (Z)-2-ethoxy-3-{4-[6-(1-methyl-3-pentylureido)pyrid-2-yl]phenyl}acrylic acid], for which the melting point stood at 162 °C. The Kd on PPARγ came to 30 nM.

With `CCCCCCCNC(=O)N(C)c1cccc(-c2ccc(/C=C(\C)C(=O)O)cc2)c1` [Compound 5, (E)-3-[3′-(3-heptyl-1-methylureido)biphenyl-4-yl]-2-methylacrylic acid], the Kd on PPARγ is 2 nM.

In the case of `CCCCCNC(=O)N(C)c1cccc(-c2ccc(/C=C(\CC)C(=O)O)cc2)c1` [Compound 9, 2-[1-[3′-(1-methyl-3-pentylureido)biphenyl-4-yl]meth-(E)-ylidene]butyric acid], the Kd on PPARδ worked out at 2000 nM; on PPARγ it was 4 nM; at PPARα, 2000 nM.

As to `CCCCCCCC(=O)N(C)Cc1cccc(-c2ccc(/C=C(\OCC)C(=O)O)cc2)c1` [Compound 1, (Z)-2-ethoxy-3-{3′-[(methyloctanoylamino)methyl]biphenyl-4-yl}acrylic acid], the values for the Kd at PPARγ and on PPARα were 30 nM and 2000 nM, respectively.

For `CCCCCCCNC(=O)N(C)c1cccc(-c2ccc(/C=C(\OCC)C(=O)O)cn2)c1` [Compound 4, (Z)-2-ethoxy-3-{6-[3-(3-heptyl-1-methylureido)phenyl]pyrid-3-yl}acrylic acid hydrochloride], the Kd on PPARγ was determined as 4 nM.

As for `CCCCCNC(=O)N(C)c1cccc(-c2ccc(/C=C(\OC)C(=O)O)cc2)c1` [Compound 13, (Z)-2-Methoxy-3-[3′-(1-methyl-3-pentylureido)biphenyl-4-yl]acrylic acid], the Kd at PPARδ worked out at 4000 nM; at PPARγ, 8 nM.

`CCCCOc1cc(/C=C(\CC)C(=O)O)ccc1-c1cccc(CN(C)C(=O)c2ccccc2)c1` [Compound 22, 2-[1-{3′-[(benzoylmethylamino)methyl]-2-butoxybiphenyl-4-yl}meth-(E)-ylidene]butyric acid]: the Kd on PPARγ is 120 nM.
